Laboratory results: patent publication US20180050033A1, “ANTIFUNGAL TREATMENT OF RHEUMATOID ARTHRITIS” (Gerbe Labs Inc., priority 2016, published 2018)
≈ marks a conversion by molar mass, not a printed value.

Columns and labels:
Type in all cases: cell-based
[1] = tested on: Aspergillus fumigatus MYA3626 spores; experiment: Broth microdilution MIC assay; details: MYA3626SPORES
Protocol: (§1) Broth Microdilution Minimal Inhibitory Concentration (MIC) assays were performed to obtain the MIC values for Itraconazole and Ketoconazole with an antibiotic (Vancomycin or Tobramycin or Amikacin) against the two fungal strains.
(§2) Fungal strains: Aspergillus fumigatus MYA3626 and Candida albicans ATCC 90028 strains were obtained from the American Type Culture Collection (Manassas, Va.). The strains were maintained as a frozen glycerol stocks at −80° C. The fungal strains were prepared by thawing a glycerol stock, streaking and growing onto Sabouraud's Dextrose Agar (SDA) plates, overnight at 35±2° C. in aerobic conditions and used for the assay.
(§3) Antifungal agents: Itraconazole (Cat #16657, Lot #087K1322), Ketoconazole (Cat # K1003, Lot # SLBR1290V). Stocks were prepared in appropriate solvents following the CLSI guidelines. See, for example, Reference method for broth dilution antifungal susceptibility testing of filamentous fungi, approved standard, 2nd ed. CLSI document M38-A2, vol. 28. CLSI, Wayne, Pa. (2008).
(§4) The completely synthetic medium RPMI-1640 (with glutamine, without bicarbonate, and with phenol red as a pH indicator) was buffered with 0.165 mol/L MOPS (3-[N-morpholino] propanesulfonic acid) buffer was used as the growth medium for the fungal strains. Overnight cultures of the fungal strains were grown on Difco™ Sabouraud's Dextrose Agar (SDA) plates at 35° C. To induce conidium and sporangiospore formation, the culture plates were transferred to incubator and grown for 5-7 days 30° C. or until good sporulation was obtained. Approximately, 10 mL of 0.85% saline containing 0.01% of Tween 80 was used to poured on to the agar plate containing conidia or sporangiospores and hyphal fragments. The suspension containing conidia or sporangiospores and hyphal fragments was aspirated and transferred to a sterile tube. This mixture was filtered to separate the spores from the vegetative cells of the fungi. The supernatant containing only fungal spores was used for all the assays. Fungal spore inoculum was prepared in RPMI-1640 (with glutamine, without bicarbonate, and with phenol red as a pH indicator) was buffered with 0.165 mol/L MOPS (3-[N-morpholino] propanesulfonic acid) buffer to a final density of 10^6 CFU/mL using a hemocytometer.
(§5) Each MIC assay included 11 2-fold serial dilutions of the antifungal agents. Test concentrations for the test articles were tested at the following concentrations: 64 μg/mL, 32 μg/mL, 16 μg/mL, 8 μg/mL, 4 μg/mL, 2 μg/mL, 1 μg/mL, 0.5 μg/mL, 0.25 μg/mL, 0.125 μg/mL, and 0.0625 μg/mL. Broth microdilution assays were performed according to the procedures detailed in CLSI document M38-A2 (CLSI, 2008). Briefly, 2× stock solutions of test articles were prepared at 128 μg/mL. A two-fold serial dilution of the stock solution were performed. Diluted stock solutions of the fungal spores were adjusted (to be equivalent to 10^6 CFU/mL). 1× final concentration of the antifungals was obtained when they were combined with the fungal spore broth in the microtiter plate. Plates were incubated for 3-5 days at 35±2° C. in an ambient air incubator. MIC values recorded are the minimum concentration of the test articles that inhibits growth as observed by unaided eye. The MIC values was expressed in μg/mL. The assay was carried out in duplicates.

[2] = tested on: Candida albicans ATCC 90028 spores; experiment: Broth microdilution MIC assay; details: Candida albicans alone
Protocol: as §1, §2, §3, §4, §5

[3] = tested on: co-culture of Aspergillus fumigatus + Candida albicans spores (1:1); experiment: Broth microdilution MIC assay, co-culture
Protocol: as §1, §2, §3, §4, §5

[4] = tested on: Aspergillus fumigatus MYA3626 spores; experiment: Checkerboard synergy assay; details: MYA3626SPORES, FIG. 5 synergy data, agent alone
Protocol: (§6) This study evaluated the synergistic activity of 2 antifungal agents (Itraconazole and Ketoconazole) with an antibiotic (Vancomycin or Tobramycin or Amikacin) against the spores of 2 fungi; Aspergillus fumigatus MYA3626 and Candida albicans ATCC 90028; individually as well as in co-cultivation (Aspergillus fumigatus+Candida albicans). Synergy testing was carried out as per checkerboard assay by Victor Lorian methodology. See, for example, Lorian, V. Antibiotics in Laboratory Medicine. Edition 5: (2005).
(§7) In vitro activity of the test articles were tested in combination by the Checkerboard assay. See, for example, Lorian, V. Antibiotics in Laboratory Medicine. Edition 5: (2005). The assay was carried out in duplicates. The starting concentrations for the test articles was determined as per the MIC data. Two-fold serial dilutions of 8×MIC for the antifungal agents; Itraconazole and Ketoconazole was performed separately. When Itraconazole and Ketoconazole were combined in a microtiter plate, the concentration of both agents was 2×MIC. 1× final concentration of the antifungal agents were obtained when they were combined with the 10^6 CFU/mL fungal spore inoculum in the microtiter plate. The plates were incubated at 35° C. for 3-5 days. The assay plates were visually inspected to confirm the MIC endpoint and used to calculate the Fractional Inhibitory Concentration (FIC) Index to determine any synergistic interaction.
(§8) The FIC Index was calculated as follows:
(§9) FIC Index=FICA+FICB • where, A and B are the MIC of the test article and an antifungal in combination (in a single well). MICA and MICB are the MICs of each antifungal individually.
(§10) FIC Index value was used to categorize the interaction, as follows:
(§11) To determine if Itraconazole and Ketoconazole combination had synergistic antifungal activity, a synergy assay was carried out with Itraconazole (1 μg/mL, 0.5 μg/mL, 0.25 μg/mL, 0.125 μg/mL, 0.0625 μg/mL, 0.0312 μg/mL, and 0.0156 μg/mL) and Ketoconazole (8 μg/mL, 4 μg/mL, 2 μg/mL, 1 μg/mL, 0.5 μg/mL, 0.25 μg/mL, 0.125 μg/mL, 0.0625 μg/mL, 0.0312 μg/mL, 0.0156 μg/mL and 0.0078 μg/mL) against Aspergillus fumigatus alone, Candida albicans alone, and against Aspergillus fumigatus+Candida albicans co-culture.

[5] = tested on: Candida albicans ATCC 90028 spores; experiment: Checkerboard synergy assay; details: ATCC90028, FIG. 6 synergy data, agent alone
Protocol: as §6, §7, §8, §9, §10, §11

[6] = tested on: co-culture of Aspergillus fumigatus + Candida albicans spores (1:1); experiment: Checkerboard synergy assay, co-culture; details: FIG. 7 synergy data, agent alone
Protocol: as §6
as §7, with “The assay plates were visually inspected to confirm the MIC endpoint and used to calculate the Fractional Inhibitory Concentration (FIC) Index to determine any synergistic interaction.” left out
The FIC Index was calculated as follows: […]

Candida albicans = experiment: Culture and sensitivity, Patient 7; details: culture from Patient 7
Text: (§12) The patient underwent the standard workup for CRS, sleep disorder, and nasal obstruction, plus our diagnostic skin test and sinus CT scan.

[7] = tested on: S. aureus, a gram negative bacteria; experiment: Culture and sensitivity, Patient 7; details: culture from Patient 7
Text: as §12

[8] = Table 3, Aspergillus fumigatus alone, 10^6 CFU/mL spores, 3-5 days at 35° C.
[9] = Table 4, repeated MIC study, Aspergillus fumigatus alone
[10] = ATCC90028, Table 3, 10^6 CFU/mL spores, 3-5 days at 35° C., read-out: MIC
[11] = Aspergillus fumigatus, Table 3, read-out: MIC
[12] = Aspergillus fumigatus, Table 4, repeated MIC study, agent alone, read-out: MIC

SMILES	MIC [1, 8] [µg/mL]	MIC [1, 9] [µg/mL]	MIC [2, 10] [µg/mL]	MIC ([2]; Table 4, repeated MIC study) [µg/mL]	MIC [3, 11] [µg/mL]	MIC [3, 12] [µg/mL]	MIC ([3]; Table 4, repeated MIC study, agent alone, listed as Itraconazone) [µg/mL]	MIC [4] [µg/mL]	MIC [5] [µg/mL]	MIC [6] [µg/mL]	Sensitivity of cultured Candida albicans (Candida albicans)	Sensitivity of cultured bacteria [7]
CCC(C)n1ncn(-c2ccc(N3CCN(c4ccc(OCC5COC(Cn6cncn6)(c6ccc(Cl)cc6Cl)O5)cc4)CC3)cc2)c1=O (stereo not drawn) [Itraconazole]	0.5 (≈ 0.709 µM)	1 (≈ 1.42 µM)	0.06 (≈ 0.085 µM)	0.06 (≈ 0.085 µM)	0.5 (≈ 0.709 µM)	1 (≈ 1.42 µM)	1 (≈ 1.42 µM)	> 0.5	> 0.0312	> 0.5	–	–
CC(=O)N1CCN(c2ccc(OCC3COC(Cn4ccnc4)(c4ccc(Cl)cc4Cl)O3)cc2)CC1 (stereo not drawn) [Ketoconazole]	16 (≈ 30.1 µM)	8 (≈ 15.1 µM)	0.06 (≈ 0.113 µM)	0.06 (≈ 0.113 µM)	16 (≈ 30.1 µM)	8 (≈ 15.1 µM)	–	> 4	> 0.0312	> 4	sensitive	–
NC[C@H]1O[C@H](O[C@H]2[C@H](O)[C@@H](O[C@H]3O[C@H](CO)[C@@H](O)[C@H](N)[C@H]3O)[C@H](N)C[C@@H]2N)[C@H](N)C[C@@H]1O [tobramycin]	–	–	–	–	–	–	–	–	–	–	–	sensitive
